Measured values published in patent US10259786B2, “Psychotropic agents and uses thereof” (LB PHARMACEUTICALS INC., priority 2016, dated 2019).

How the values were obtained:
[1] = system: PCP-treated rats; assay: Novel Object Recognition (NOR) assay, sub-chronic PCP; type: in vivo, rat; details: PO; for difference between novel and familiar object exploration time: 3 hours post-dose, all doses save one; for known object exploration behavior in rats treated with PCP: compared to untreated rats
Procedure: Efficacy of Compounds 102 and 103 was evaluated in rats in a Novel Object Recognition (NOR) assay, a well-established model recapitulating cognitive and negative aspects of the PANSS scale of schizophrenia. In this assay, animals were treated for several weeks with a low dose of phencyclidine (PCP) to impair the ability of the rat to discern between novel and familiar objects. Typically rats, like humans, would spend more time exploring a novel object than a familiar one.
Rats (n=10/group) were dosed with 2 mg/kg intraperitoneal twice a day (i.p., b.i.d.) for seven days followed by 7 days drug free. […] Novel object exploration time was measured for the test subjects from a sub-chronic PCP NOR study in rats (n=10/group). The differences in exploration time between novel (Tnovel¬) and familiar (Tfamliar) objects are depicted in FIG. 1A (*: p<0.05; and **: p<0.01).

[2] = 2014 study, 30 psychiatric drugs tested; cited from earlier work
[3] = target: D5 receptor (Homo sapiens (Human), UniProt P21918); details: D5 receptor subtype; cited from earlier work
[4] = target: D4 receptor (Homo sapiens (Human), UniProt P21917); details: D4 receptor subtype; cited from earlier work
[5] = target: D1 receptor (Homo sapiens (Human), UniProt P21728); details: D1 receptor subtype; cited from earlier work
Sequence of D1 receptor (P21728 whole entry): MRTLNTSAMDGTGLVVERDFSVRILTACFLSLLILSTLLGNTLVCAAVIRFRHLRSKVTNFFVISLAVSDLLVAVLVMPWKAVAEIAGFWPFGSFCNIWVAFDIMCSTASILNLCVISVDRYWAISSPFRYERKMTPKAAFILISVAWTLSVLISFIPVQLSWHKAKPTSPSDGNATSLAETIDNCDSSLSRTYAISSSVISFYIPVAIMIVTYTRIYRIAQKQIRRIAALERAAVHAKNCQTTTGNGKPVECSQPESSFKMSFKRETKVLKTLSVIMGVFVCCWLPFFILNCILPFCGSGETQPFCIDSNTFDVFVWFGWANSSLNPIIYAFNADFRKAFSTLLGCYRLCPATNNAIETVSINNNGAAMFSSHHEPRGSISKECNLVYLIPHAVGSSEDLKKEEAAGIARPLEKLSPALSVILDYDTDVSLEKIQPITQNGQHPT

Sequence of D4 receptor (P21917 whole entry): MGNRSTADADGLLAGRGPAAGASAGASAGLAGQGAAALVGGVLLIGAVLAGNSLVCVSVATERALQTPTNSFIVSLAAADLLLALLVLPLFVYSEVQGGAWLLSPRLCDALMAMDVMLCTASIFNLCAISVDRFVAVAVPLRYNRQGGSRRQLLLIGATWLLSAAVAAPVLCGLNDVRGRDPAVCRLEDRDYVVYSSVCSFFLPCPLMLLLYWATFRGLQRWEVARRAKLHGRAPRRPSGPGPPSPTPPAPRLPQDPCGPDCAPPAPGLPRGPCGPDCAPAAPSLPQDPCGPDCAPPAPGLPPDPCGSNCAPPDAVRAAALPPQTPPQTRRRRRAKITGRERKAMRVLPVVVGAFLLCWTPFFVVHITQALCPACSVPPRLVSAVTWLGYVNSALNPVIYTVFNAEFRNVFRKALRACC
Sequence of D5 receptor (P21918 whole entry): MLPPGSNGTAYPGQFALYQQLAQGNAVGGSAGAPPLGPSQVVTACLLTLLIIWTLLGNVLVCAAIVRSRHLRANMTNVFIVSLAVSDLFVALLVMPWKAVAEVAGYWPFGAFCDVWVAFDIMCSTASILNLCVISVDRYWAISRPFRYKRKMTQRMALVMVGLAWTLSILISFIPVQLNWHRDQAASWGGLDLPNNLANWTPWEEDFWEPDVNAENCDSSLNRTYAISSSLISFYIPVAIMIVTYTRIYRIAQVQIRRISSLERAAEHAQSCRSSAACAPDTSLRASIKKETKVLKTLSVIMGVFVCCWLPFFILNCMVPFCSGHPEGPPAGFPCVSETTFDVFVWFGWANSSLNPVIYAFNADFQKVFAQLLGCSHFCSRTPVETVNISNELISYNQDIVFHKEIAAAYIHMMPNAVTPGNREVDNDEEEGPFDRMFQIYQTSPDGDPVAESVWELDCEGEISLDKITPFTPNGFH

Structure (SMILES) | difference between novel and familiar object exploration time [1] | known object exploration behavior in rats treated with PCP [1] | passive diffusion across a PAMPA membrane (Pe) [2] | affinity [3] | affinity [4] | affinity [5]
CCN1CCCC1CNC(=O)c1cc(S(=O)(=O)CC)c(NC)cc1OC (centres unmarked) [Compound 102] | increased | able to restore known object exploration behavior in rats treated with PCP to levels similar to untreated rats |  |  |  | 
CCN1CCC[C@H]1CNC(=O)c1cc(S(=O)(=O)CC)c(NC)cc1OC [Compound 103, ((S)-4-methylamino-N-((1-ethyl-2-pyrrolidinyl)methyl)-5-(ethylsulfonyl))-2-methoxybenzamide] | increased | able to restore known object exploration behavior in rats treated with PCP to levels similar to untreated rats |  |  |  | 
CCN1CCCC1CNC(=O)c1cc(S(=O)(=O)CC)c(N)cc1OC (centres unmarked) [Amisulpride, 4-amino-N-(((1-ethyl-2-pyrrolidinyl)methyl)-5-(ethylsulfonyl))-2-methoxybenzamide] |  |  | lowest of 30 psychiatric drugs tested | without any affinity | without any affinity | without any affinity
